For 1 molecule, KI results are on record in PMC7260283, “The Amino Terminus of LeuT Changes Conformation in an Environment Sensitive Manner” (Neurochemical Research, 2019).

The structures appear in SMILES notation.

The experiment addresses T1, wild type LeuT (Aquifex aeolicus, UniProt O67854).
T1 construct: gene snf; full-length, His-tagged, expressed in E. coli C41(DE3), purified in DDM; plasmid from Eric Gouaux
Description: scintillation proximity assay, competition of cold leucine with [3H]leucine, YSi beads. Format: binding. Particulars: purified His-tagged protein; competitive with [3H]leucine. On the technique in general: SPA uses beads or plates that emit light when radiolabelled molecules are held near them.

On to `CC(C)C[C@H](N)C(=O)O` [leucine], for which the KI turned out to be 15.5 ± 2.4 nM.
